Measurements from patent US5712274A, “Thienotriazolodiazepine compounds and their pharmaceutical use” (Yoshitomi Pharmaceutical Industries, Ltd., priority 1995, dated 1998).

Key:
ELAM-1 = assay: Inhibitory effect on TNF-α-induced expression of ELAM-1 in HUVECs; assay type: cell-based; conditions: Homo sapiens, HUVEC; HUVECs, TNF-α 100 U/ml, 5 hr; read-out: Inhibitory effect (IC50) on ELAM-1 expression
Method: (§1) Inhibitory effect on expression of VCAM-1 and ELAM-1 in human umbilical vein-derived endothelial cells (HUVECs)
(§2) HUVECs were suspended in 199 medium containing 20% FCS, 20 μg/ml endothelial cell growth factor derived from bovine brain, and 100 μg/ml heparin, plated into 96-well microculture plates coated with collagen, and cultured at 37° C. in 5% CO2. When cells were grown to confluence, the cells received tumour necrosis factor (TNF)-α (20 U/ml for VCAM-1 expression, 100 U/ml for ELAM-1 expression) and cultured for 5 hr. After the cells were washed once with 199 medium, mouse anti-human VCAM-1 monoclonal antibody (2 μg/ml) or rat anti-human ELAM-1 monoclonal antibody (2 μg/ml) was added, and the cells were incubated for 1 hr at room temperature. After the cells were washed twice, peroxidase-conjugated anti-mouse immunoglobulin antibody or anti-rat immunoglobulin antibody was added, and the cells were incubated for 1 hr at room temperature. After the cells were washed 3 times, 2,2'-azino-bis(3-ethylbenzothiazolone-6-sulfonic acid) was added. After the plates were stood for 15 min at room temperature, absorbance at 405 nm with a reference wave length of 490 nm was measured with a 96-well microplate reader and was regarded as a indicator of VCAM-1 or ELAM-1 expression.

VCAM-1 = assay: Inhibitory effect on TNF-α-induced expression of VCAM-1 in HUVECs; assay type: cell-based; conditions: Homo sapiens, HUVEC; HUVECs, TNF-α 20 U/ml, 5 hr; read-out: Inhibitory effect (IC50) on CAM-1 expression
Method: as §1, §2

[1] = test system: oxazolone-induced ear edema; assay: Effect on oxazolone-induced ear edema in mice; assay type: in vivo; conditions: sensitized mice, 24 hr after challenge
Method: Effect on oxazolone-induced ear edema in mice.
Mice were sensitized by applying 50 μl of oxazolone solution (50 mg/ml in acetone) to their shaved abdomen on day 0. On day 7, 5 μl of oxazolone solution was applied to each surface of the right ear. After 24 hr (day 8), the right and left ears were cut off with a puncher of 6 mm in diameter and weighed with an electronic reading balance. The difference in weight between the oxazolone-treated ear (right) and untreated ear (left) was taken to reflect the extent of ear edema. Test compounds were suspended in 0.5% hydroxypropylmethycellulose solution and administered p.o. (0.1 ml/10 g body weight) on days 0 to 4 (once a day) and day 7 (twice a day).

## CNC(=O)C[C@@H]1N=C(c2ccc(Cl)cc2)c2c(sc(C)c2C)-n2c(C)nnc21 [Example 1, (S)-N-methyl-4-(4-chloro-phenyl)-2,3,9-trimethyl-6H-thieno[3,2-f][1,2,4]triazolo[4,3-a]-[1,4]diazepine-6-acetamide 1/4 hydrate]
ELAM-1
  IC50: 52 nM
VCAM-1
  IC50: 25 nM
[1]; 0.1 mg/kg p.o.
  Increase in ear weight (mean ± S.D.): 16.3 ± 1.0 mg
[1]; 0.3 mg/kg p.o.
  Increase in ear weight (mean ± S.D.): 15.0 ± 0.6 mg
[1]; 1 mg/kg p.o.
  Increase in ear weight (mean ± S.D.): 14.2 ± 0.8 mg
